The source made the active and inactive calls.
Legend:
[1] = target: T1, Histone-lysine N-methyltransferase NSD2 (Homo sapiens, UniProt O96028); assay type: biochemical
T1 sequence (O96028 whole entry): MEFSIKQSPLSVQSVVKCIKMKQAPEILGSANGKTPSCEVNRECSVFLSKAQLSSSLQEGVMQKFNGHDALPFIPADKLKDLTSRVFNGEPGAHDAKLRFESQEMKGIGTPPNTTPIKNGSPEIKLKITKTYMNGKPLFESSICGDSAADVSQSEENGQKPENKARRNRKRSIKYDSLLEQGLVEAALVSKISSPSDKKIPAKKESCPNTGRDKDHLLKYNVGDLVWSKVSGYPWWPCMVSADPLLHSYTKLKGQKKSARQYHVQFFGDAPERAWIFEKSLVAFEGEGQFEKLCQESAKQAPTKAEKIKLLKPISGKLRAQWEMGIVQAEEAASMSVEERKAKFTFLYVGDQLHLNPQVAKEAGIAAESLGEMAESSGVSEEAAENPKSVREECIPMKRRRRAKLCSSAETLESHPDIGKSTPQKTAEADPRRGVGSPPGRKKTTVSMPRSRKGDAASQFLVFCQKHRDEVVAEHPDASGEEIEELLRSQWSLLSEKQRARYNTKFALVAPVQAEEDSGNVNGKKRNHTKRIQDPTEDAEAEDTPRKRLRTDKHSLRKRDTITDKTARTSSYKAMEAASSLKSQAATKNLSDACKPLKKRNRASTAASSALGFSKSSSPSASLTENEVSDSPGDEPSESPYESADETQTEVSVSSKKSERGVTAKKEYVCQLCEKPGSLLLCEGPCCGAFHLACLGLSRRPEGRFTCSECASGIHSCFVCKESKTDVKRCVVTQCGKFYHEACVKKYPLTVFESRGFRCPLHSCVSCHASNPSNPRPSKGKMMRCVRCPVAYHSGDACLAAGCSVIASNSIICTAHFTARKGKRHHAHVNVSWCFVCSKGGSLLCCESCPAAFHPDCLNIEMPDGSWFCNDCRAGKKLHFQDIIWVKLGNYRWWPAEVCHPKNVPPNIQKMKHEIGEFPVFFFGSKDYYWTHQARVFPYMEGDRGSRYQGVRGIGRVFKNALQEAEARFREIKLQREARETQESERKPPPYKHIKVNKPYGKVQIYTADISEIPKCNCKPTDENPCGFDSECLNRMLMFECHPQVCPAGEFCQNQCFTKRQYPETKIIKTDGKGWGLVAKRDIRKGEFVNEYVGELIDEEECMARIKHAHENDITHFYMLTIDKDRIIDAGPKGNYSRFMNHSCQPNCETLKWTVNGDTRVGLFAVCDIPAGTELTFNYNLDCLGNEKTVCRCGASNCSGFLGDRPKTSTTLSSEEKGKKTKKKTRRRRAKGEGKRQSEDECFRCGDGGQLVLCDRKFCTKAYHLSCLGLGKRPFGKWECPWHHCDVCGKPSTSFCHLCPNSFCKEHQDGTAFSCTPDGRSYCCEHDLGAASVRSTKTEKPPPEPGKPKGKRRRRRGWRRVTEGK

Fatty acid synthase [2] = target: T2, Fatty acid synthase (Homo sapiens, UniProt P49327); test: inhibition of human FAS-TE enzyme activity – biochemical, kinetic fluorescence intensity, dose response (AID 624326); assay type: functional;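 further: rate of fluorescence rise from hydrolysis of a fluorogenic O-methyl fluorescein ester substrate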
T2 sequence (P49327 whole entry): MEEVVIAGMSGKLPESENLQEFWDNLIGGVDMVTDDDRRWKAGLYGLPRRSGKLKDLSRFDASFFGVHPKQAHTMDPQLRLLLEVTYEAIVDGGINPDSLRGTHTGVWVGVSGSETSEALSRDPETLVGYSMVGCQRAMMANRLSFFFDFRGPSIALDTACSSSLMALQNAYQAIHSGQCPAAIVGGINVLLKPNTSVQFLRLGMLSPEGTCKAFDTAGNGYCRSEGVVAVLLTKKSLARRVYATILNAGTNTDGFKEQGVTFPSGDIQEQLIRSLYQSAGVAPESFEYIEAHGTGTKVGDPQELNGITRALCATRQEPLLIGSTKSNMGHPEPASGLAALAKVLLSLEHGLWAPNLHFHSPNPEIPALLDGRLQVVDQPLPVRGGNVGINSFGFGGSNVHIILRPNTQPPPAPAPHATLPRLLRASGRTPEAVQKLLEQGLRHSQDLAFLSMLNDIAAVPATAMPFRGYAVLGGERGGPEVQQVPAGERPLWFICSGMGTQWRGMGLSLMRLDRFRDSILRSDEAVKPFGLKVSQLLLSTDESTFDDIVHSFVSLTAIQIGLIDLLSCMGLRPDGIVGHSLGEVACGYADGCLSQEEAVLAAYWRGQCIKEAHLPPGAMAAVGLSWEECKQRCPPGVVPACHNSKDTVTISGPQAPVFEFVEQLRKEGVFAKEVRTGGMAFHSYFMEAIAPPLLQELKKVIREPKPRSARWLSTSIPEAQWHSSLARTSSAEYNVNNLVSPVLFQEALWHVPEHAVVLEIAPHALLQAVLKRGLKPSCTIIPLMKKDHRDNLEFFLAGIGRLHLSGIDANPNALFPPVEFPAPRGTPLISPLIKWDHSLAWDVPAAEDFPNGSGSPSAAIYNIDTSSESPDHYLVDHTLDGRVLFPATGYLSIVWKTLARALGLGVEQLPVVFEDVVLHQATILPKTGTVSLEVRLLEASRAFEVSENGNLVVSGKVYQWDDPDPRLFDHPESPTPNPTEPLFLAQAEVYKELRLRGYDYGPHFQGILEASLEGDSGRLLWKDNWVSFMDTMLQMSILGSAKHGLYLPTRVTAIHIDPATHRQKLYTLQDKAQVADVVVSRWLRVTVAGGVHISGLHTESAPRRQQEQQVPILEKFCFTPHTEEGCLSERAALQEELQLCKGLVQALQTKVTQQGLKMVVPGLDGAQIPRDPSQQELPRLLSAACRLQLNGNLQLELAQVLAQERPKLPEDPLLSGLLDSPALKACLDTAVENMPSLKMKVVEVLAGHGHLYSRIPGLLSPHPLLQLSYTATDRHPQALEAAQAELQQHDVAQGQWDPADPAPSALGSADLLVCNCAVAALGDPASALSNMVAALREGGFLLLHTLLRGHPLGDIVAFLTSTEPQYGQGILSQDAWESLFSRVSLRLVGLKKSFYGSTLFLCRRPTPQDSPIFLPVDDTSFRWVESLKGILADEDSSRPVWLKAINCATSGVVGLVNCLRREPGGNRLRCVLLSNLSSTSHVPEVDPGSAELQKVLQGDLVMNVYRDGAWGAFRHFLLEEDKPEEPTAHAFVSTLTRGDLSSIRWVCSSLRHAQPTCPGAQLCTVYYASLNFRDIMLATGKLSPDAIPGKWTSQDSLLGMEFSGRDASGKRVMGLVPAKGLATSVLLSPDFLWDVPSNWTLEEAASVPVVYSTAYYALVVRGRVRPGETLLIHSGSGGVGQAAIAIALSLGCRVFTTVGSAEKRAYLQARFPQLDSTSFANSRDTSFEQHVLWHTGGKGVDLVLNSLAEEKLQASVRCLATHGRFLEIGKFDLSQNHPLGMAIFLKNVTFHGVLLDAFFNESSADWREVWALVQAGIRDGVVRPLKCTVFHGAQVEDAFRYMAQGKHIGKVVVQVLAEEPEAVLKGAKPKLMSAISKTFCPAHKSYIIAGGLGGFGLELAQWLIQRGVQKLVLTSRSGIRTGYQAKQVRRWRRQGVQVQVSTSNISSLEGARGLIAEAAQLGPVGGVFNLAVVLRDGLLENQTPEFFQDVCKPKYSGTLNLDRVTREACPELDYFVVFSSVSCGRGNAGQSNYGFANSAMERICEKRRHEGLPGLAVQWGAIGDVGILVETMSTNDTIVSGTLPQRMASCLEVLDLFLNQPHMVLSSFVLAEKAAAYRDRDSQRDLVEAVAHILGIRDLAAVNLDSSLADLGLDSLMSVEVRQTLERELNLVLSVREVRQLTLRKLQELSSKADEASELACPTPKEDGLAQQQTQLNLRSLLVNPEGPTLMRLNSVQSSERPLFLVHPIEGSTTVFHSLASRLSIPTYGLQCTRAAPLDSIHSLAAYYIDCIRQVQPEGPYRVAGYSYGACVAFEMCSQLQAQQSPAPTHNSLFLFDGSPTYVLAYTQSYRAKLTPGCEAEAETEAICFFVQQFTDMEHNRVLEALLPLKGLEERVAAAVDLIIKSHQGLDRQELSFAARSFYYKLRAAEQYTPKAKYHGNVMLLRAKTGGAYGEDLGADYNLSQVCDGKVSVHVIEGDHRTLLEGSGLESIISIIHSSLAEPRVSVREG

Fatty acid synthase [3] = target: T2, Fatty acid synthase; test: inhibition of human FAS-TE enzyme activity – biochemical, endpoint fluorescence intensity, uHTS hits, dose response (AID 624327); assay type: functional;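 further: fluorescence from hydrolysis of an O-methyl fluorescein acyl ester substrate by the enzyme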
[4] = luciferase reporter signal suppression in cells – H4 neuroglioma cells, luminescence, dose response (AID 1990); assay type: functional, cell-based
[5] = alpha-synuclein stem-loop luciferase translation blockers – H4 neuroglioma cells, luminescence, confirmation (AID 1988); assay type: functional, cell-based
[6] = HEK-293T viability loss after treatment – luminescence, T-cell screen hits, cytotoxicity control for TCR NF-kB inhibitor project, dose response (AID 489026); assay type: functional, cell-based;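 further: cells exposed to compound about 14 hours before the viability readout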
[7] = Luminescence Cell-Based Dose Response HTS to Identify Inhibitors of 5'UTR Stem-Loop Driven Prion Protein mRNA Translation in H4 Neuroglioblastoma Cells. [Related pubchem assays: 1827 (Project Summary), 1813 (Primary HTS)]; assay type: functional
[8] = NIH3T3 cell viability loss – ATP luminescence, mouse fibroblasts, counter-screen, dose response (AID 2010); assay type: functional, cell-based;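 further: cells exposed to compound for about 90 hours before reading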
[9] = Trypanosoma cruzi growth suppression in host cells – NIH3T3 host cells, beta-gal luminescence, confirmation (AID 2044); assay type: functional, cell-based;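 further: intracellular parasites grown in NIH/3T3 mouse fibroblasts as host cells; luminescent beta-galactosidase reporter signal from transgenic T. cruzi replicating inside host cells; inhibitors lower the luminescence signal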
[10] = target: T3, Apoptotic protease-activating factor 1 (Homo sapiens, UniProt O14727); assay type: functional
T3 sequence (O14727 whole entry): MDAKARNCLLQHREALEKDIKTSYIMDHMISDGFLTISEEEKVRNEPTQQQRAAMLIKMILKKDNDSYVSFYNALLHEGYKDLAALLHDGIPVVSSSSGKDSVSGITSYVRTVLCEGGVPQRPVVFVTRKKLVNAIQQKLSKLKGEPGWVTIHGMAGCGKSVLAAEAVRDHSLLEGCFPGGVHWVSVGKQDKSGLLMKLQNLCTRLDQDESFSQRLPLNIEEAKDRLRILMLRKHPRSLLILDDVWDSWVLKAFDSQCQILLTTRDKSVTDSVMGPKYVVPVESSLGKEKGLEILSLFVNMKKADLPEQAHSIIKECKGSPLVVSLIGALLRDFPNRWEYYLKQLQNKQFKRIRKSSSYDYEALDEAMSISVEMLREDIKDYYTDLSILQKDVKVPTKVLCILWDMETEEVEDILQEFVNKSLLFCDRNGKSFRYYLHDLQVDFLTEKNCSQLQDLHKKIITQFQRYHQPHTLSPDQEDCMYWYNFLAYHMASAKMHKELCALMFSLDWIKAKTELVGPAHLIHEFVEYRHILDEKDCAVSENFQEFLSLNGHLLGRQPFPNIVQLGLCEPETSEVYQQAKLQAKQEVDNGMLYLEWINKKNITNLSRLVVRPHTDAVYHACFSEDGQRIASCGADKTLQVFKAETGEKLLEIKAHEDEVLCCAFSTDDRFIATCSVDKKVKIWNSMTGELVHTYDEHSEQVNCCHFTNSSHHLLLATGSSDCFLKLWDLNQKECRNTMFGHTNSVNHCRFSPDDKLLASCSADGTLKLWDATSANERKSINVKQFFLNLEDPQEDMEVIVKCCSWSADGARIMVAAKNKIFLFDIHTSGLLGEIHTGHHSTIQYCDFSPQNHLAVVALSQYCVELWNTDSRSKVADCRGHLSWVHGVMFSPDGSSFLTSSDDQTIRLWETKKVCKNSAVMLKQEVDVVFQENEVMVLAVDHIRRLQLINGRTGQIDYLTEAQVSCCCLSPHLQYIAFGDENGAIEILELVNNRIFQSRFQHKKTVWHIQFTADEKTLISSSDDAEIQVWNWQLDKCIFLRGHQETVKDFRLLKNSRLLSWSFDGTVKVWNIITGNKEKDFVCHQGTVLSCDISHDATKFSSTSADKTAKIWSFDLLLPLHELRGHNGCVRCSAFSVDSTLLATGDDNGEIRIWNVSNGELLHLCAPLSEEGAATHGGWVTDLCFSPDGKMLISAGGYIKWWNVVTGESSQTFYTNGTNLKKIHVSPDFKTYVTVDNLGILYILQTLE

[11] = target: T4, Ubiquitin-conjugating enzyme E2 N (Homo sapiens, UniProt P61088); assay type: functional;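 further: Dose-response confirmation in a TR-FRET assay detecting UBC13-driven polyubiquitin chain formation, inhibition measured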
T4 sequence (P61088 whole entry): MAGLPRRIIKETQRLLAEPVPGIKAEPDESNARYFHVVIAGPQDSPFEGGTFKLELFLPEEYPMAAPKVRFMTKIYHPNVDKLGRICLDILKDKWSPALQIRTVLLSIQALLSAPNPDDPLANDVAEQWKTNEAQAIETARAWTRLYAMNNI

P388/ADR = test: cells; assay type: functional; settings: Mus musculus
Paired box protein Pax-8 = Paired box protein Pax-8 (Homo sapiens, UniProt Q06710); test: PAX8 transcriptional activity inhibition in RMG-I – RMG-I cells, luciferase, cherry-pick, dose response (AID 687027); assay type: functional, cell-based;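 further: luciferase reporter driven by Pax8 target thyroperoxidase promoter measured by SteadyGlo luminescence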
Sequence of Paired box protein Pax-8 (Q06710 whole entry): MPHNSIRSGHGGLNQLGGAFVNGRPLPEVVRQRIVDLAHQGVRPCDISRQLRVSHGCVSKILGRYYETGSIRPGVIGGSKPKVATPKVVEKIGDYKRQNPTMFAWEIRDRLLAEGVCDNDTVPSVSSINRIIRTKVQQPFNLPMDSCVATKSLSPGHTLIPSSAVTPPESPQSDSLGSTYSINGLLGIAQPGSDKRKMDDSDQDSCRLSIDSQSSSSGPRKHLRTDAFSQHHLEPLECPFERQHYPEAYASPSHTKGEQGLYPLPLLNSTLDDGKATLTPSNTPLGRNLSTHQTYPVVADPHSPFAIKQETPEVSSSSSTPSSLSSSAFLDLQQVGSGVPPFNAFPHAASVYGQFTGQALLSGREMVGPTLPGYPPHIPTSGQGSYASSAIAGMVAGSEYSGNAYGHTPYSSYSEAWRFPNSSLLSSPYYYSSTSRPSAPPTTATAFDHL

SN12K1 = test: cells; assay type: functional; settings: Homo sapiens
P388 = test: cells; assay type: functional; settings: Mus musculus
[12] = blockers of HIV-1 envelope-mediated cell-cell fusion – cherry-pick, dose response (AID 652057); assay type: functional, cell-based
[13] = HIV-1 AD8 envelope cell-cell fusion blockers – cherry-pick, dose response (AID 652062); assay type: functional, cell-based;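 further: luciferase signal from cell-cell fusion driven by HIV-1 clade B AD8 Env; potency is for inhibitors of fusion seen as a drop in luminescence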

## CCN(CC)CCCN(Cc1cc2cc3c(cc2nc1O)OCO3)C(S)=NCCCOC
[1]
  AC50: > 20 µM (inactive)

## C[C@H](NC(=O)c1[nH]cnc1C(=O)N[C@@H](CCCCNC(=O)OC(C)(C)C)C(=O)OC(C)(C)C)C(=O)OC(C)(C)C
Fatty acid synthase [2]
  IC50: 2.6 µM (active)
Fatty acid synthase [3]
  IC50: 2.95 µM (active)

## O=C(NCc1ccc2c(c1)OCO2)c1ccc(C2SCC(=O)N2Cc2ccco2)cc1 (centres undefined)
Fatty acid synthase [2]
  IC50: 5.95 µM (active)
Fatty acid synthase [3]
  IC50: 8.5 µM (active)

## CCOC(=O)C1CCCN(c2nc3c(C)cccn3c(=O)c2/C=C(\C#N)C(=O)NCc2ccco2)C1 (centres undefined)
Fatty acid synthase [2]
  IC50: 8.23 µM (active)
Fatty acid synthase [3]
  IC50: 16.2 µM (active)

## CC(C)n1c(CN(C)Cc2ccccc2)nc2c1c(=O)n(C)c(=O)n2C
[4]
  EC50: 43 µM (active)
[5]
  EC50: > 120 µM (not active)
[6]
  IC50: > 80 µM (inactive)
[7]
  EC50: > 120 µM (not active)

## Cc1c(Cl)c([N+](=O)[O-])nn1CCCC(=O)N(Cc1ccccc1)Cc1ccccc1
[8]
  EC50: 29.7 µM (active)
Fatty acid synthase [2]
  IC50: 11 µM (active)
Fatty acid synthase [3]
  IC50: 10 µM (active)
[9]
  EC50: 1.86 µM (active)

## COC(=O)C1=C(C)N(Cc2ccccc2)C(NCCc2c[nH]c3ccccc23)=N[C@H]1c1cccc(C(F)(F)F)c1
[10]
  IC50: 71 µM (active)
[11]
  IC50: > 20 µM (inactive)

## COCCCNC(=O)C(=O)Nc1ccc2c(c1)N(S(=O)(=O)c1cccs1)CCC2
[4]
  EC50: 4.45 µM (inconclusive)
[5]
  EC50: 0.419 µM (active)
[6]
  IC50: > 80 µM (inactive)
[7]
  EC50: 6.86 µM (active)

## COc1ccccc1OCCNC(=O)c1cccc(S(=O)(=O)N2CCN(Cc3ccccc3)CC2)c1
[10]
  IC50: > 100 µM (inactive)
[11]
  IC50: > 20 µM (inactive)

## COc1ccc2[nH]c3c(c2c1)CCN1C(=O)C(CC(=O)NC(C)(C)C)C[C@H](C(=O)N2CCOCC2)[C@@]31CCC1CCCC1 (some centres undefined)
Fatty acid synthase [2]
  IC50: 7.48 µM (active)
Fatty acid synthase [3]
  IC50: 8.32 µM (active)

## Cc1sc(N2CCN(S(=O)(=O)c3ccc4c(c3)NC(=O)CO4)CC2)nc1-c1ccccc1
Fatty acid synthase [2]
  IC50: 4.04 µM (active)
Fatty acid synthase [3]
  IC50: 4.15 µM (active)

## C=C(C)c1nc(Oc2ccccc2)nc(Oc2ccccc2)n1
P388/ADR
  GI50: 0.824 µM (active)
Paired box protein Pax-8
  AC50: 3.04 µM (active)
SN12K1
  GI50: 3.35 µM (inactive)
P388
  GI50: 1.17 µM (inactive)

## COc1cc(/C=C/C(=O)Oc2ccc(NC(C)=O)cc2)ccc1C(=O)O/C=C/c1ccccc1
P388/ADR
  GI50: 8.02 µM (inactive)
SN12K1
  GI50: > 100 µM (inactive)
P388
  GI50: 18.8 µM (inactive)

## C=C1C(C)C2C(Cc3ccccc3)NC(=O)C23OC(=O)/C=C\CC(=O)CCC(C)C/C=C/C3C1O (centres undefined)
P388/ADR
  GI50: 0.224 µM (active)
SN12K1
  GI50: 0.444 µM (active)
P388
  GI50: 0.0552 µM (active)

## O=C1Sc2sc(=S)sc2SC1c1ccccc1 (centres undefined)
P388/ADR
  GI50: 23.7 µM (inactive)
SN12K1
  GI50: 25.1 µM (inactive)
P388
  GI50: 22.5 µM (inactive)

## COc1ccccc1/N=C(\C)C1=C(O)CC(c2ccccc2)CC1=O (centres undefined)
[6]
  IC50: > 80 µM (inactive)

## CCOC(=O)N/N=C/c1c(C)nn(-c2cccc(C(F)(F)F)c2)c1Cl
[6]
  IC50: 69.6 µM (inactive)

## C[C@H](CO)N1C[C@H](C)[C@@H](CN(C)C(=O)Nc2cccc(C(F)(F)F)c2)OCc2ccccc2-c2ccccc2C1=O
[12]
  AC50: < 0.285 µM (active)
[13]
  AC50: 0.346 µM (active)

## Cc1ccc(-c2ccc3c(c2)O[C@@H](CN(C)Cc2ccncc2)[C@H](C)CN([C@H](C)CO)S3(=O)=O)cc1
[12]
  AC50: 10.2 µM (active)
[13]
  AC50: 14.2 µM (active)

## CN(C)c1cc(N/N=C/c2ccccc2C(F)(F)F)nc(N(C)C)n1
[10]
  IC50: 5.07 µM (active)

## Cc1cccc(OCC(=O)N/N=C/c2cc([N+](=O)[O-])ccc2N2CCOCC2)c1
Fatty acid synthase [2]
  IC50: 8.84 µM (active)
Fatty acid synthase [3]
  IC50: 9.22 µM (active)

## CC(=O)OC1CCC2(C)C(CCC3C2CCC2(C)C(c4ccc(=O)oc4)C(OC(C)=O)CC32O)C1 (centres undefined)
P388/ADR
  GI50: 40.9 µM (inactive)
SN12K1
  GI50: 0.0144 µM (active)
P388
  GI50: 14.6 µM (inactive)

## CNC=O
P388/ADR
  GI50: > 10000 µM (inactive)
SN12K1
  GI50: > 10000 µM (inactive)
P388
  GI50: > 5620 µM (inactive)

## N[C@H](C(=O)O)[C@@H]1CC(Cl)=NO1 [ACIVICIN]
P388/ADR
  GI50: 0.471 µM (active)
SN12K1
  GI50: 1.13 µM (inactive)
P388
  GI50: 0.242 µM (active)

## CO[C@H]1Nc2c(ccc(C)c2O)C(=O)N2C=C(/C=C/C(N)=O)C[C@@H]12 [ANTHRAMYCIN METHYL ETHER]
P388/ADR
  GI50: 0.101 µM (active)
SN12K1
  GI50: 0.0197 µM (active)
P388
  GI50: 0.0436 µM (active)

## OC[C@H]1O[C@@H](n2cnc3cncnc32)[C@H](O)[C@@H]1O [NEBULARINE]
P388/ADR
  GI50: 0.305 µM (active)
SN12K1
  GI50: 1.48 µM (inactive)
P388
  GI50: 0.321 µM (active)

From ChEMBL document CHEMBL1201862, “PubChem BioAssay data set” (2004)
